According to paper PMC9688808, “Discovery of Novel Lin28 Inhibitors to Suppress Cancer Cell Stemness” (Cancers, 2022):

How the values were obtained:
[1] = target: T1, Lin28B ZKD (Homo sapiens, UniProt Q6ZN17); assay: EMSA, Lin28B ZKD–Let-7 complex; format: binding; conditions: compounds 0–1200 uM
T1 construct: His-tagged human Lin28B ZKD (aa110-174); His-tag; made in house; host or cells: Escherichia coli BL21
T1 sequence (Q6ZN17 110-174): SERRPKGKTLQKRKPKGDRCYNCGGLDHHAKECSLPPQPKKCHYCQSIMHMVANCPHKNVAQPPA
Experimental: EMSA followed the standard protocols we published with minor modifications. An IRDye800CWN-labeled Let-7 RNA probe was purchased from IDT (Coralville, IA, USA). Lin28B or Lin28A proteins were incubated with […] of probe in a standard 20 uL EMSA reaction in a reaction buffer containing 20 mM HEPES-NaOH, pH 7.4, 2 mM DTT, 3 mM MgCl2, 0.05% NP-40, protease inhibitors, and 0.1 ug poly[dI:dC]. After incubation for 30 min at 37 °C, reactions were loaded onto 4% non-denatured polyacrylamide gel in 0.5× TBE buffer. The RNA oligo bands were visualized by using the Li-Cor Odyssey 9120 Infrared Imaging System.
(§1) Figure 3 Lin28 inhibitors block the interaction between Lin28B ZKD and Let-7. (A) EMSA used 10 nM of IR800DyeCWN-labeled let-7 probe (lane 1), 0.5 uM Lin28B ZKD protein with 10 nM of labeled Let-7 probe (lane 2), or Lin28B ZKD, labeled Let-7 probe and 100× non-labelled competitor probe (lane 3). EMSA used Lin28B ZKD, labeled Let-7 probe, and 100–1200 uM of indicated compounds (lanes 4–10). (B) FP assays were performed by using 10 uM of Lin28B ZKD and 1 nM of FAM-labeled Let-7 probe and 1 nM–1000 uM of compounds. (C) Bio-layer interferometry (BLI) assays were performed using 0–25 uM of Ln115 with Avi-tagged Lin28B ZKD protein. (D) Chemical structures of the three lead compounds were shown.

[2] = test system: IGROV1 cells; assay: Real-time qPCR of Let-7d, SOX2, HMGA2 in IGROV1 cells; format: cell-based; conditions: IGROV1 cells (Lin28A-positive), 20 uM, 48 h
Experimental: The DUNE cell line and DUNE cells with Lin28B knockout by CRISPR (DUNE (KO)) were reported in our previous studies. IGROV1 cells were obtained from Sigma-Aldrich (St. Louis, MO, USA). DUNE and DUNE (KO) cells were cultured in Dulbecco’s Modified Eagle Medium with high Glucose/L-glutamine (DMEM; Hyclone, Logan, UT, USA) and 10% of fetal bovine serum (FBS; Gibico, Waltham, MA, USA). IGROV1 cells were cultured in Roswell Park Memorial Institute 1640 (RPMI-1640; Hyclone) medium with 10% FBS. All the cell lines were incubated in 5% CO2 at 37 °C and were tested for mycoplasma contamination monthly and cell line authentication was tested by short tandem repeat profiling by ATCC.
(§2) There are several standard molecular techniques, including real-time qPCR, flow cytometry, cell proliferation, colony formation, and immunoblotting assays, that have been reported previously by our lab.
Figure 5 Lin28 inhibitors block the Lin28A isoform. (A) EMSA used 10 nM of IR800DyeCWN-labeled Let-7 probe (lane 1), 0.5 uM Lin28A ZKD protein with 10 nM of labeled Let-7 probe (lane 2), or Lin28A ZKD, labeled Let-7 probe and 100× non-labeled competitor probe (lane 3). EMSA used Lin28A ZKD, labeled Let-7 probe, and 100–1200 uM of indicated compounds (lanes 4–10). (B) FP assays were performed by using 10 uM of Lin28A ZKD, 1 nM of FAM-labeled Let-7 probe, and 1 nM–200 uM of compounds. (C) Lin28A-positive IGROV1 cells were treated with 20 uM of the indicated compound for 48 h. Real-time qPCR measured RNA levels of Let-7d, SOX2, and HMGA2. Three biological replicates were performed and all results are presented as mean +/− SD. p-value ≤ 0.05—(*); ≤0.01—(**); ≤0.001—(***).

[3] = target: T1, Lin28B ZKD; assay: Bio-layer interferometry (BLI) with Avi-tagged Lin28B ZKD; format: binding; conditions: for BLI binding to Lin28 ZKD: up to 100 µM
Experimental: BLI assays were performed as we previously reported to quantify the direct and reversible interactions between small molecules and Lin28B ZKD by using OctetRED (ForteBio, Bohemia, NY, USA). Lin28B was thus expressed with His-tag and a biotinylated AviTag sequence ([…]) at its N-terminus in Escherichia coli BL21 cells. Purified Lin28B ZKD (50 ug/mL) was bound to the super-streptavidin sensors for 1 h at room temperature. Sensors were next blocked with biocytin, washed, and then dipped into wells containing increasing concentrations of the tested inhibitors in assay buffer (20 mM N-2-hydroxyethylpiperazine-N0-2-ethanesulfonic acid (HEPES), 150 mM NaCl, 500 uM tris(2-carboxyethyl) phosphine (TCEP), and 1% dimethylsulfoxide (DMSO)). Association for 200 s and dissociation in assay buffer for 100 s were recorded for each well. Data analysis was done using the OctetRED software (ForteBio, Bohemia, NY, USA).
as §1
To validate that these molecules indeed directly bind to the ZKD domain of Lin28 in a reversible and dose-dependent manner, we used the biolayer interferometry (BLI) assay. Biotinylated Avi-tagged Lin28 ZKD was immobilized onto streptavidin biosensors. The sensor plates were then dipped in successive wells containing increasing concentrations of Ln7, Ln 15, or Ln115. […]

[4] = test system: DUNE cells; assay: FACS analysis of CD44 and CD133 positive cell populations; format: cell-based; conditions: 20 uM, 48 h; for % of CD133+ cells: paired vehicle 60.8–65.4; for % CD44+ cells: paired vehicle 84.7–94.9
Experimental: as §2
Figure 7 Lin28 inhibitors block CSC phenotypes of cancer cells. (A) FACS analysis using CD44 and CD133 antibodies detected CSC cell populations from DUNE or DUNE (KO) cells treated with either vehicle or 20 uM of Ln7, Ln15, and Ln115 for 48 h. (B) DUNE, DUNE (KO), and IGROV1 cell proliferation were measured in the presence of 20 uM of Ln7, Ln15, and Ln115. (C) Colony formation assays (colonies >[…] were counted) measured the suppressive effects of Ln7, Ln15, and Ln115 at the concentration of 20 uM. p-value ≤ 0.01—(**); ≤0.001—(***).

Row | Structure (SMILES) | inhibition of ZKD–Let-7 complex in EMSA [1] | concentration that disrupts ZKD–Let-7 complex in EMSA [1] | BLI binding to Lin28 ZKD [3] | Kd ([3]; 0–25 uM Ln115, Avi-tagged Lin28B ZKD, read-out: estimated KD (BLI)) | Let-7 microRNA levels [2] | CD44- and CD133-positive cell populations [4] | % of CD133+ cells [4] | % CD44+ cells [4] | upregulation of Let-7 [2]
1 | CCOc1cccc2c1N[C@@H](c1ccc(C(=O)O)cc1)[C@H]1CC=C[C@@H]21 [Li71, reference compound] | robust inhibition |  |  |  | upregulated |  |  |  | 
2 | O=c1cccc(-c2nc3cc(F)c(O)cc3c(=O)[nH]2)[nH]1 [Ln115] |  |  |  | 60 ± 4 µM |  | significant reductions | 30 ± 4.5% | 54.3 ± 6.0% | 
3 | CC(=O)N(C)c1cccc(-c2ccc3nnc(C)n3n2)c1 [compound 1632, reference compound] |  |  |  |  | upregulated |  |  |  | 

Continued, in another order:

Row | inhibition of ZKD–Let-7 complex in EMSA [1] | concentration that disrupts ZKD–Let-7 complex in EMSA [1] | BLI binding to Lin28 ZKD [3] | Kd ([3]; 0–25 uM Ln115, Avi-tagged Lin28B ZKD, read-out: estimated KD (BLI)) | Structure (SMILES) | Let-7 microRNA levels [2] | CD44- and CD133-positive cell populations [4] | % of CD133+ cells [4] | % CD44+ cells [4] | upregulation of Let-7 [2]
4 |  | > 1000 µM | did not show any binding |  | CCc1cc(=O)[nH]c(Nc2cc(Cl)ccc2O)n1 [Ln7] |  | significant reductions | 37.1 ± 4.2% | 61.6 ± 3.2% | 
5 |  | 400 µM | non-specific binding to the sensors |  | O=c1[nH]c(Nc2ccccc2O)cs1 [Ln15] |  | significant reductions | 14.7 ± 2.1% | 70.1 ± 4.6% | 10 fold
